# In ChEMBL document CHEMBL3885861, “Open TG-GATES”:
# Species on record: Rattus norvegicus
# Experiment: Open TG-GATES - Regimen: Single
# Assay type: toxicity, organism-based, Sprague-Dawley
# Design: regimen Single, gender Male, age 6 weeks
# Conditions: in vivo, ip, 0.03 mg/kg, route intraperitoneal injection, dose 30 ug/Kg, dose level Low; for APTT / Bas / Eos / Fbg / Hb / Ht / Lym / MCH / MCHC / MCV / Mono / Neu / PT / Plat / RBC / Ret / WBC: tissue Blood; for KIDNEY_L / KIDNEY_R / KIDNEY_TOTAL: tissue Kidney; for LIVER: tissue Liver; for A/G / ALP / ALT / AST / BUN / CRE / Ca / Cl / DBIL / GLC / IP / K / LDH / Na / PL / RALB / TBIL / TC / TG / TP / gamma-GTP: tissue Plasma
compound,measurement,setting,value
CC(=O)N[C@H]1[C@@H](O[C@@H]2O[C@H](CC(O)[C@H]3O[C@@H](n4ccc(=O)[nH]c4=O)[C@H](O)[C@@H]3O)[C@H](O)[C@H](O)[C@H]2NC(=O)/C=C/CC(C)C)O[C@H](CO)[C@@H](N)[C@@H]1O (some centres not stated) [TUNICAMYCIN],TERMINAL_BW,3 h,222.8 g
same,APTT,3 h,22.4 s
same,Bas,3 h,0%
same,Eos,3 h,0.6%
same,Fbg,3 h,302.4 mg/dL
same,Hb,3 h,13 g/dL
same,Ht,3 h,39.3%
same,Lym,3 h,81%
same,MCH,3 h,20.5 pg
same,MCHC,3 h,33%
same,MCV,3 h,62.1 fL
same,Mono,3 h,3%
same,Neu,3 h,14.4%
same,PT,3 h,15.7 s
same,Plat,3 h,115.4 x10_4/uL
same,RBC,3 h,633.2 x10_4/ul
same,Ret,3 h,8.1%
same,WBC,3 h,99.9 x10_2/uL
same,KIDNEY_L,3 h,1 g
same,KIDNEY_R,3 h,1 g
same,KIDNEY_TOTAL,3 h,2 g
same,LIVER,3 h,10.4 g
same,A/G,3 h,1.2
same,ALP,3 h,1404.2 IU/L
same,ALT,3 h,37.6 IU/L
same,AST,3 h,69.6 IU/L
same,BUN,3 h,15.4 mg/dL
same,CRE,3 h,0.2 mg/dL
same,Ca,3 h,10.8 mg/dL
same,Cl,3 h,106 meq/L
same,DBIL,3 h,0 mg/dL
same,GLC,3 h,173.4 mg/dL
same,IP,3 h,7.5 mg/dL
same,K,3 h,4.5 meq/L
same,LDH,3 h,151.2 IU/L
same,Na,3 h,140.8 meq/L
same,PL,3 h,126 mg/dL
same,RALB,3 h,2.9 g/dL
same,TBIL,3 h,0.01 mg/dL
same,TC,3 h,71.8 mg/dL
same,TG,3 h,78.6 mg/dL
same,TP,3 h,5.4 g/dL
same,gamma-GTP,3 h,1.4 IU/L
same,TERMINAL_BW,6 h,219.6 g
same,APTT,6 h,21.8 s
same,Bas,6 h,0%
same,Eos,6 h,0.4%
same,Fbg,6 h,295 mg/dL
same,Hb,6 h,13.2 g/dL
same,Ht,6 h,39.8%
same,Lym,6 h,77.8%
same,MCH,6 h,20.9 pg
same,MCHC,6 h,33%
same,MCV,6 h,63.3 fL
same,Mono,6 h,2%
same,Neu,6 h,18.6%
same,PT,6 h,15.6 s
same,Plat,6 h,114.3 x10_4/uL
same,RBC,6 h,629.2 x10_4/ul
same,Ret,6 h,7.1%
same,WBC,6 h,90.7 x10_2/uL
same,KIDNEY_L,6 h,1 g
same,KIDNEY_R,6 h,1 g
same,KIDNEY_TOTAL,6 h,2 g
same,LIVER,6 h,9.8 g
same,A/G,6 h,1.2
same,ALP,6 h,1356.2 IU/L
same,ALT,6 h,42.6 IU/L
same,AST,6 h,74.6 IU/L
same,BUN,6 h,12.6 mg/dL
same,CRE,6 h,0.2 mg/dL
same,Ca,6 h,10.8 mg/dL
same,Cl,6 h,105.2 meq/L
same,DBIL,6 h,0 mg/dL
same,GLC,6 h,168.2 mg/dL
same,IP,6 h,8.9 mg/dL
same,K,6 h,4.4 meq/L
same,LDH,6 h,157.8 IU/L
same,Na,6 h,141.2 meq/L
same,PL,6 h,120.6 mg/dL
same,RALB,6 h,2.9 g/dL
same,TBIL,6 h,0.018 mg/dL
same,TC,6 h,69.2 mg/dL
same,TG,6 h,57.6 mg/dL
same,TP,6 h,5.3 g/dL
same,gamma-GTP,6 h,1.2 IU/L
same,TERMINAL_BW,9 h,213.3 g
same,APTT,9 h,23.6 s
same,Bas,9 h,0%
same,Eos,9 h,0.6%
same,Fbg,9 h,315.4 mg/dL
same,Hb,9 h,13.5 g/dL
same,Ht,9 h,41%
same,Lym,9 h,83.8%
same,MCH,9 h,21 pg
same,MCHC,9 h,32.9%
same,MCV,9 h,63.8 fL
same,Mono,9 h,2%
same,Neu,9 h,12.8%
same,PT,9 h,15.8 s
same,Plat,9 h,112.5 x10_4/uL
same,RBC,9 h,643.2 x10_4/ul
same,Ret,9 h,7.5%
same,WBC,9 h,85.7 x10_2/uL
same,KIDNEY_L,9 h,0.9 g
same,KIDNEY_R,9 h,1 g
same,KIDNEY_TOTAL,9 h,1.9 g
same,LIVER,9 h,8.9 g
same,A/G,9 h,1.2
same,ALP,9 h,1454.8 IU/L
same,ALT,9 h,36.4 IU/L
same,AST,9 h,71.2 IU/L
same,BUN,9 h,12.8 mg/dL
same,CRE,9 h,0.1 mg/dL
same,Ca,9 h,10.8 mg/dL
same,Cl,9 h,106 meq/L
same,DBIL,9 h,0 mg/dL
same,GLC,9 h,181 mg/dL
same,IP,9 h,9.3 mg/dL
same,K,9 h,4.4 meq/L
same,LDH,9 h,174 IU/L
same,Na,9 h,142.2 meq/L
same,PL,9 h,129 mg/dL
same,RALB,9 h,3 g/dL
same,TBIL,9 h,0.01 mg/dL
same,TC,9 h,75.4 mg/dL
same,TG,9 h,70.4 mg/dL
same,TP,9 h,5.5 g/dL
same,gamma-GTP,9 h,1 IU/L
same,TERMINAL_BW,24 h,234.5 g
same,APTT,24 h,21.3 s
same,Bas,24 h,0%
same,Eos,24 h,0.8%
same,Fbg,24 h,308.6 mg/dL
same,Hb,24 h,12.8 g/dL
same,Ht,24 h,39.3%
same,Lym,24 h,82%
same,MCH,24 h,20.1 pg
same,MCHC,24 h,32.5%
same,MCV,24 h,61.6 fL
same,Mono,24 h,2.6%
same,Neu,24 h,13.4%
same,PT,24 h,15.7 s
same,Plat,24 h,114.8 x10_4/uL
same,RBC,24 h,637.8 x10_4/ul
same,Ret,24 h,7.4%
same,WBC,24 h,75.9 x10_2/uL
same,KIDNEY_L,24 h,1 g
same,KIDNEY_R,24 h,1.1 g
same,KIDNEY_TOTAL,24 h,2.1 g
same,LIVER,24 h,11.1 g
same,A/G,24 h,1.2
same,ALP,24 h,1690.8 IU/L
same,ALT,24 h,40.4 IU/L
same,AST,24 h,67.8 IU/L
same,BUN,24 h,16.6 mg/dL
same,CRE,24 h,0.1 mg/dL
same,Ca,24 h,10.4 mg/dL
same,Cl,24 h,105.6 meq/L
same,DBIL,24 h,0 mg/dL
same,GLC,24 h,183.4 mg/dL
same,IP,24 h,7.3 mg/dL
same,K,24 h,4.6 meq/L
same,LDH,24 h,148 IU/L
same,Na,24 h,141.2 meq/L
same,PL,24 h,141.6 mg/dL
same,RALB,24 h,3 g/dL
same,TBIL,24 h,0.006 mg/dL
same,TC,24 h,76.4 mg/dL
same,TG,24 h,98.6 mg/dL
same,TP,24 h,5.6 g/dL
same,gamma-GTP,24 h,1.4 IU/L
